Assays:
Type in all cases: cell-based
[1] = system: Escherichia coli (NBRC3972); test: Suppression of metabolite 4-methylhexanoic acid from 14-methylhexadecanoic acid
Procedure: (§1) After culture on fabric prepared in the same manner as in the above (1), 3 ml of methanol was added, and extraction was carried out under ultrasonic irradiation for 30 minutes (20° C.). The extraction liquid was mixed with (a 1000 ppm methanol solution of) an ADAM reagent of Funakoshi Co., Ltd. at 1:1 (volume ratio) and left overnight under room temperature and dark place conditions. After that, 4-methyl-3-hexenoic acid as a metabolite from 14-methylhexadecanoic acid was quantified by HPLC. The quantification conditions are as follows.
(§2) The production amount of 4-methyl-3-hexenoic acid after culture on the fabric to which each metabolism controlling agent was added was quantified, and the ratio of the production amount to that of 4-methyl-3-hexenoic acid in the case of adding no metabolism controlling agent (control) was calculated as a metabolite suppression rate (%). The higher a numerical value thereof is, the more the metabolism is suppressed. Note that the metabolite suppression rate was determined by the following formula:
(§3) Metabolite suppression rate(%)=100×[(D−C)/D] • C: production amount of metabolite of example or comparative example (μg/fabric g) • D: production amount of metabolite of control (μg/fabric g)
(§4) The metabolism of 14-methylhexadecanoic acid by bacteria of the genus Escherichia (Escherichia coli) was tested in the same manner as in example 1.
(§5) In this example, Escherichia coli (NBRC3972) was used as a microorganism.
(§6) Further, in this example, a bacterial suspension of 10^6 (CFU/ml) prepared by using an NB liquid medium diluted to 1/10 with ion exchange water was used as a bacterial suspension.
(§7) Further, in this example, 4-methylhexanoic acid was quantified as a metabolite from 14-methylhexadecanoic acid, and the metabolite suppression rate was determined in the same manner as in example 1.
(§8) Note that, in this example, C12OH (1-dodecanol) was used as the metabolism controlling agent.

[2] = system: Escherichia coli (NBRC3972); test: Suppression of metabolism of 14-methylhexadecanoic acid on cotton fabric
Procedure: (§9) A methanol solution in which 14-methylhexadecanoic acid (SIGMA-ALDRICH) was dissolved was added dropwise to 3 cm×3 cm pieces of sterilized plain-weave cotton fabric to make it adhered to the fabric. The adhesion amount of 14-methylhexadecanoic acid was set to 10 μg per piece of the plain-weave cotton fabric (100 μg/fabric g).
(§10) Further, a methanol solution in which each metabolism controlling agent was dissolved was prepared and added dropwise to the fabric to which 14-methylhexadecanoic acid adhered, and it was thereafter dried for an hour. This fabric was placed in a sterilized screw tube bottle No. 3 (Maruemu Corporation) and 100 μl of the bacterial suspension was inoculated thereto, and culture was carried out under 37° C.; conditions for 21 hours.
(§11) 3 ml of methanol was added to the screw tube bottle after culture, and extraction was carried out under ultrasonic irradiation for 30 minutes (20° C.). The extraction liquid was mixed with a (trimethylsilyl)diazomethane hexane solution (FUJIFILM Wako Pure Chemical Corporation) at 9:1 (volume ratio) and left overnight under room temperature and dark place conditions. After that, 14-methylhexadecanoic acid remaining on the fabric was quantified by GC. The quantification conditions for GC are as follows. • GC: Agilent 7890A • GC column: Agilent DB-1 30 m×250 μm×0.25 μm • Temperature rise condition: 50° C. (held for 3 minutes)-(10° C./min)-300° C. (held for 5 minutes) • Sample injection volume: 1 μl • Split ratio: 1:12 • Detector: FID
as §2, with “residual” for “production”, “14-methylhexadecanoic” for “4-methyl-3-hexenoic”, “the” for “each”, “metabolism” for “metabolite”
(§12) Metabolism suppression rate(%)=[1−(100−A)/(100−B)]×100 • A: residual amount of 14-methylhexadecanoic acid of example or comparative example (μg/fabric g) • B: residual amount of 14-methylhexadecanoic acid of control (μg/fabric g)
as §4, §5, §6, §8

Rhodotorula mucilaginosa [3] = test: as above; conditions: agent 250 μg/fabric g
Procedure: as §9, §10, §11
as §2, with “residual” for “production”, “14-methylhexadecanoic” for “4-methyl-3-hexenoic”, “the” for “each”, “metabolism” for “metabolite”
as §12
The metabolism of 14-methylhexadecanoic acid by yeast of the genus Rhodotorula was tested in the same manner as in example 1.
In this example, Rhodotorula mucilaginosa (strain isolated from clothing) was used as a microorganism.
Further, in this example, the bacteria were precultured under conditions of a PDA agar medium (Difco), 30° C.; and 48 hours.
Further, in this example, a bacterial suspension of 10^7 (CFU/ml) prepared by using a PDB liquid medium (Difco) diluted to 1/10 with ion exchange water was used as a bacterial suspension.

Rhodotorula mucilaginosa [4] = test: Suppression of metabolite 4-methylhexanoic acid from 14-methylhexadecanoic acid; conditions: agent 250 μg/fabric g
Procedure: The extraction liquid was mixed with (a 1000 ppm methanol solution of) an ADAM reagent of Funakoshi Co., Ltd. at 1:1 (volume ratio) and left overnight under room temperature and dark place conditions. […] The quantification conditions are as follows. […] The higher a numerical value thereof is, the more the metabolism is suppressed. Note that the metabolite suppression rate was determined by the following formula: […] In this example, Rhodotorula mucilaginosa (strain isolated from clothing) was used as a microorganism. Further, in this example, the bacteria were precultured under conditions of a PDA agar medium (Difco), 30° C.; and 48 hours. Further, in this example, a bacterial suspension of 10^7 (CFU/ml) prepared by using a PDB liquid medium (Difco) diluted to 1/10 with ion exchange water was used as a bacterial suspension.

[5] = system: Escherichia coli (NBRC3972); test: Measurement of viable bacterial count on fabric
Procedure: (§13) After culture on fabric prepared in the same manner as in the above (1), 9 mL of an LP diluent (manufactured by NIHON PHARMACEUTICAL CO., LTD.) was added, and the extraction of the bacteria was carried out under ultrasound for 10 minutes. The extraction liquid was poured and mixed to an SCD-LP agar medium (NIHON PHARMACEUTICAL CO., LTD.), and culture was thereafter carried out at 37° C.; for a day. The number of colonies obtained on each piece of the fabric was counted, and a common logarithm value thereof was measured as the viable bacterial count. […] In addition, the […], the more the viable bacterial count of the microorganism is maintained.
as §4, §5, §6, §8

Micrococcus aloeverae [6] = test: Measurement of viable bacterial count on fabric; conditions: agent 250 μg/fabric g
Procedure: as §13
(§14) The metabolism of 14-methylhexadecanoic acid by bacteria of the genus Micrococcus was tested in the same manner as in example 1.
(§15) In this example, Micrococcus aloeverae (strain isolated from clothing) was used as a microorganism.
(§16) Further, in this example, a bacterial suspension of 10^7 (CFU/ml) prepared by using an SCD liquid medium (NIHON PHARMACEUTICAL CO., LTD.) diluted to 1/10 with ion exchange water was used as a bacterial suspension.
as §8

Staphylococcus aureus [7] = test: Measurement of viable bacterial count on fabric; conditions: agent 250 μg/fabric g
Procedure: as §13
(§17) The metabolism of 14-methylhexadecanoic acid by bacteria of the genus Staphylococcus (Staphylococcus aureus) was tested in the same manner as in example 1.
(§18) In this example, Staphylococcus aureus (strain isolated from clothing) was used as a microorganism.
(§19) Further, in this example, a bacterial suspension of 10^7 (CFU/ml) prepared by using an NB liquid medium diluted to 1/10 with ion exchange water was used as a bacterial suspension.
as §8

Staphylococcus aureus [8] = test: Suppression of metabolism of 14-methylhexadecanoic acid on cotton fabric; conditions: agent 250 μg/fabric g
Procedure: as §9, §10, §11
as §2, with “residual” for “production”, “14-methylhexadecanoic” for “4-methyl-3-hexenoic”, “the” for “each”, “metabolism” for “metabolite”
as §12, §17, §18, §19

Staphylococcus aureus [9] = test: Suppression of metabolite 4-methylhexanoic acid from 14-methylhexadecanoic acid; conditions: agent 250 μg/fabric g
Procedure: as §1, §2, §3, §17, §18, §19, §7, §8

Micrococcus aloeverae [10] = test: Suppression of metabolite 2-methylbutanoic acid from 14-methylhexadecanoic acid; conditions: agent 250 μg/fabric g
Procedure: as §1, §2, §3, §14, §15, §16
Further, in this example, 2-methylbutanoic acid was quantified as a metabolite from 14-methylhexadecanoic acid, and the metabolite suppression rate was determined in the same manner as in example 1.
as §8

Micrococcus aloeverae [11] = test: Suppression of metabolism of 14-methylhexadecanoic acid on cotton fabric; conditions: agent 250 μg/fabric g
Procedure: as §9, §10, §11
as §2, with “residual” for “production”, “14-methylhexadecanoic” for “4-methyl-3-hexenoic”, “the” for “each”, “metabolism” for “metabolite”
as §12, §14, §15, §16, §8

Row | SMILES | Metabolite suppression rate (%) ([1]; agent 500 μg/fabric g) | Metabolite suppression rate (%) ([1]; agent 1000 μg/fabric g) | Metabolism suppression rate (%) ([2]; agent 500 μg/fabric g) | Metabolism suppression rate (%) ([2]; agent 1000 μg/fabric g) | Metabolism suppression rate (%) (Rhodotorula mucilaginosa [3]) | Metabolite suppression rate (%) (Rhodotorula mucilaginosa [4]) | Bacterial count (Log (cfu/fabric cm^2)) ([5]; agent 500 μg/fabric g) | Bacterial count (Log (cfu/fabric cm^2)) ([5]; agent 1000 μg/fabric g) | Bacterial count (Log (cfu/fabric cm^2)) (Micrococcus aloeverae [6]) | Bacterial count (Log (cfu/fabric cm^2)) (Staphylococcus aureus [7]) | Metabolism suppression rate (%) (Staphylococcus aureus [8]) | Metabolite suppression rate (%) (Staphylococcus aureus [9]) | Metabolite suppression rate (%) (Micrococcus aloeverae [10]) | Metabolism suppression rate (%) (Micrococcus aloeverae [11])
1 | CCCCCCCCCO [Example C9OH, 1-nonyl alcohol] | 31 | 33 | 13 | 25 | 14 | 21 | 6.5 Log (cfu/fabric cm^2) | 6.3 Log (cfu/fabric cm^2) |  |  |  |  |  | 
2 | CCCCCCCCCCO [Example C10OH, 1-decanol] | 42 | 75 | 16 | 38 | 51 | 46 | 6.5 Log (cfu/fabric cm^2) | 6.4 Log (cfu/fabric cm^2) | 7.0 Log (cfu/fabric cm^2) | 5.5 Log (cfu/fabric cm^2) | 16 | 35 | 51 | 33
3 | CCCCCCCCCCCCOCCO [Example C12E1, ethylene glycol mono-1-dodecyl ether] |  |  |  |  | 24 | 41 |  |  |  |  |  |  |  | 
4 | CCCCCCCCCCCCOCCOCCO [Example C12E2, diethylene glycol mono-1-dodecyl ether, reference compound] | −2 |  | −2 |  |  |  | 6.5 Log (cfu/fabric cm^2) |  | 6.8 Log (cfu/fabric cm^2) |  | 7 |  | 8 | −11
5 | CCCCCCCCCCCCCO [Example C13OH, 1-tridecanol] |  |  |  |  |  |  |  |  | 6.7 Log (cfu/fabric cm^2) |  |  |  | 59 | 41
6 | CCCCCCCCCCCCCCO [Example C14OH, 1-tetradecanol] | 47 | 77 | 27 | 67 | 14 | 45 | 6.7 Log (cfu/fabric cm^2) | 6.5 Log (cfu/fabric cm^2) |  | 5.6 Log (cfu/fabric cm^2) | 42 | 53 |  | 
7 | CCCCCCCCCCCCCCCCO [Example C16OH, 1-hexadecanol] |  | 27 |  | 18 | 24 | 38 |  | 6.6 Log (cfu/fabric cm^2) |  | 6.1 Log (cfu/fabric cm^2) | 16 | 20 |  | 
8 | CCCCCCCCCCCCCCCCCCO [Example C18OH, 1-octadecanol, reference compound] |  | 0 | −15 | 3 | 2 |  | 6.2 Log (cfu/fabric cm^2) | 5.9 Log (cfu/fabric cm^2) | 6.8 Log (cfu/fabric cm^2) | 5.6 Log (cfu/fabric cm^2) | −1 |  | 1 | −7
